According to paper PMC8125976, “The Total Solubility of the Co-Solubilized PAHs with Similar Structures Indicated by NMR Chemical Shift” (Molecules, 2021):
Converted amounts (≈) assume the structure as drawn.

Legend:
[1] = Solubilization of PAHs in Tween 80 micellar solutions (1H-NMR quantification, MSR); settings: for MSR (molar solubilization ratio): Tween 80 10-50 mM in D2O, 25 °C; for Synergistic/inhibitory level (RΔMSR), in words: Tween 80
Excerpt: (§1) Molar solubilization ratio (MSR) is used to evaluate the solubilization potential of a surfactant, which is the molar concentration of the solubilized compound per mole of the surfactant concentration when the surfactant concentration is above CMC [37, 38], expressed by: (1) MSR=S−SCMC/C−CMC where S is the apparent solubility of a solute at the surfactant concentration of C, SCMC is the apparent solubility of the solute at CMC. Usually, the slope of the solubility with respect to the surfactant concentration can be considered to be MSR.
(§2) To compare the mutual effects of solutes in co-solubilization systems, the deviation ratio of MSR (RΔMSR) can be used to evaluate the effects of synergistic (RΔMSR > 0) or inhibitory (RΔMSR < 0), which can be expressed by: (2) RΔMSR%=MSRmixture−MSRsingle/MSRsingle×100% where MSRmixture and MSRsingle are the MSR values of solutes in the binary or ternary co-solubilization system and in the single solubilization system, respectively.
(§3) All reagents were used directly without further purification. First, a series of Tween 80 pure solutions at concentrations of 10, 20, 30, 40 and 50 mM and SDS pure solutions at concentrations of 40, 60, 80, 100 and 120 mM were prepared in D2O, respectively. These concentrations were set higher than their CMCs. The solubilization experiment was processed as follows: first, 8 equal 800 μL surfactant solutions at a certain surfactant concentration were injected into eight of 1.5 mL centrifuge cuitubes, respectively. One of them without the addition of PAHs was used as the blank control. […] Next, the surfactant solutions with PAHs solubilized were equilibrated on a reciprocating water bath oscillator at 200 rpm at 25 °C for 48 h. After equilibration, the above solutions were centrifuged at 10,000 rpm for 10 min. Finally, each of 600 μL of supernatant was transferred into 5 mm NMR tubes for further detection.
All NMR experiments were performed at 25 °C using a 500 MHz Agilent ProPulse NMR spectrometer (Agilent Technologies, Santa Clara, CA, USA) equipped with a 5 mm XYZ indirect detection probe and z-direction gradient coils with a maximum nominal gradient strength of 60 G cm^−1. The pulse excitation angle of 30 ° and the relaxation delay time of 5 s in ^1H-NMR experiments were chosen to assure the complete recovery of the magnetization and the accurate quantification. The Sodium Trimethylsilylpropionate (TSP) aqueous solution in the capillary was used as an external reference for the frequency and concentration calibration. […] Based on the resonance integral area of PAHs relative to that of TSP, we calculated their actual apparent concentrations. A total of 16 accumulations were used in 2D NOESY experiments, 1 s was chosen as mixing time. […] Due to the high growth rate of rotating frame overhauser effect (ROE) than that of NOE, ROESY experiments for Tween 80 systems were conducted instead of NOESY to avoid the possible spin diffusion effect in NOESY with the long mixing time. The parameters of the 2D ROESY experiments were the same as the NOESY experiments except that the mixing time was 0.2 s. MestReNova software (version 14.0.0, Mestrelab Research, Santiago de Compostella, Spain) was used to process all NMR data.

[2] = Solubilization of PAHs in SDS micellar solutions (1H-NMR quantification, MSR); settings: for MSR (molar solubilization ratio): SDS 40-120 mM in D2O, 25 °C; for Synergistic/inhibitory level (RΔMSR), in words / solubility increase (RΔMSR) compared to single system: SDS
Excerpt: as §1, §2, §3
All NMR experiments were performed at 25 °C using a 500 MHz Agilent ProPulse NMR spectrometer (Agilent Technologies, Santa Clara, CA, USA) equipped with a 5 mm XYZ indirect detection probe and z-direction gradient coils with a maximum nominal gradient strength of 60 G cm^−1. The pulse excitation angle of 30 ° and the relaxation delay time of 5 s in ^1H-NMR experiments were chosen to assure the complete recovery of the magnetization and the accurate quantification. The Sodium Trimethylsilylpropionate (TSP) aqueous solution in the capillary was used as an external reference for the frequency and concentration calibration. […] Based on the resonance integral area of PAHs relative to that of TSP, we calculated their actual apparent concentrations. A total of 16 accumulations were used in 2D NOESY experiments, 1 s was chosen as mixing time.

[3] = water; cited from earlier work
[4] = binary Ant-Pyr system vs single
[5] = binary Phe-Ant system vs single
[6] = ternary Phe-Ant-Pyr system vs single
[7] = binary Phe-Pyr system vs single

For `c1ccc2cc3ccccc3cc2c1` [Ant, anthracene], the “MSR (molar solubilization ratio)” value ([1]; binary Ant-Pyr system) was 0.0081, the “MSR (molar solubilization ratio)” value ([1]; binary Phe-Ant system) was 0.0084 and the “MSR (molar solubilization ratio)” value ([1]; single solubilization system) was 0.0094. The “MSR (molar solubilization ratio)” value ([1]; ternary Phe-Ant-Pyr system) was 0.0080, the “Synergistic/inhibitory level (RΔMSR), in words” value [1, 4] was “slight inhibition” and the “Synergistic/inhibitory level (RΔMSR), in words” value [1, 5] was “slight inhibition”. The “Synergistic/inhibitory level (RΔMSR), in words” value [1, 6] was “slight inhibition”, the “MSR (molar solubilization ratio)” value ([2]; binary Ant-Pyr system) was 0.0011 and the “MSR (molar solubilization ratio)” value ([2]; binary Phe-Ant system) was 0.0011. The “MSR (molar solubilization ratio)” value ([2]; single solubilization system) was 0.0011, the “MSR (molar solubilization ratio)” value ([2]; ternary Phe-Ant-Pyr system) was 0.0013 and the “Synergistic/inhibitory level (RΔMSR), in words” value [2, 4] was “neither Phe nor Pyr contributes to the solubility increase”. For the same compound, the “Synergistic/inhibitory level (RΔMSR), in words” value [2, 5] was “neither Phe nor Pyr contributes to the solubility increase” and the “Synergistic/inhibitory level (RΔMSR), in words” value [2, 6] was “slight synergism”.

For `c1ccc2c(c1)ccc1ccccc12` [Phe, phenanthrene], the “MSR (molar solubilization ratio)” value ([1]; binary Phe-Ant system) was 0.0894, the “MSR (molar solubilization ratio)” value ([1]; binary Phe-Pyr system) was 0.1216 and the “MSR (molar solubilization ratio)” value ([1]; single solubilization system) was 0.1170. The “MSR (molar solubilization ratio)” value ([1]; ternary Phe-Ant-Pyr system) was 0.0694, the “Synergistic/inhibitory level (RΔMSR), in words” value [1, 5] was “inhibition” and the “Synergistic/inhibitory level (RΔMSR), in words” value [1, 7] was “synergism”. The “Synergistic/inhibitory level (RΔMSR), in words” value [1, 6] was “inhibition”, the aqueous solubility [3] was 5.55 µM (≈ 0.989 µg/mL) and the “MSR (molar solubilization ratio)” value ([2]; binary Phe-Ant system) was 0.0095. The “MSR (molar solubilization ratio)” value ([2]; binary Phe-Pyr system) was 0.0157, the “MSR (molar solubilization ratio)” value ([2]; single solubilization system) was 0.0089 and the “MSR (molar solubilization ratio)” value ([2]; ternary Phe-Ant-Pyr system) was 0.0166. The “Synergistic/inhibitory level (RΔMSR), in words” value [2, 5] was “synergism”, the “solubility increase (RΔMSR) compared to single system” value ([2]; binary Phe-Pyr system) was 76.4% and the “Synergistic/inhibitory level (RΔMSR), in words” value [2, 7] was “synergism”. The “solubility increase (RΔMSR) compared to single system” value ([2]; ternary Phe-Ant-Pyr system) was 86.5% and the “Synergistic/inhibitory level (RΔMSR), in words” value [2, 6] was “synergism”.
